One series has as its target cMET (Homo sapiens, UniProt P08581). Particulars: reported; cited from earlier work.
A further series deals with HCC827-ER1 tumor cells. The series is described as follows: HCC827-ER1 NSCLC CDX model with EGFR exon 19 deletion.
For series [1], the system named is LXFE2478 NSCLC PDX tumor model.
Experimental: This model carries mutation EGFRex20ins (M766_A767insASV).
Insertion of 9 nucleotides in exon 20 in this model affects the EGFR tyrosine kinase domain (M766X) and confers resistance to small molecule EGFR inhibitors. This model carries no mutations in B-RAF, H-/N- and KRAS and PTEN genes (whole exome sequencing was done for both patient tumor and tumor xenograft with matching results).
Antitumor efficacy of all groups was assessed using the control vehicle/placebo buffer group as a reference. Tumor growth inhibition was determined by the comparison of RTVs of the test groups with the control group and is expressed as minimum T/C value in percent. For the evaluation of the statistical significance of antitumor efficacy, the non-parametric Kruskal-Wallis test followed by Dunn's method for multiple comparisons was performed. […] Statistical analysis was only carried out if at least 50% of the initially randomized animals still remained in the relevant group. Comparisons between test groups were carried out for the same days. All p-values <0.05 were considered statistically significant. Statistical calculations were performed using GraphPad Prism bioanalytic software (version 9.10 for Microsoft Windows, GraphPad Software, San Diego, California, USA.
Tumors were harvested from the donor PDX mice, cut into fragments (LXFE2478: 3-4 mm edge length) and inoculated into recipient nude mice subcutaneously (SC) in the flank. When the tumor implants reached approximately 80-200 mm3 in a sufficient number of animals, mice were assigned to groups. Randomization was performed based on “stratified distribution” method. Treatment started on the same day as randomization (day 0).
Treatment started the same day as enrollment (day 0). Mice were terminated during the observation period if the tumor volume was >1000 mm3.
Antibody was administered once a week intra peritoneally (IP) at 5 mg/kg and 25 mg/kg dose over a period of 5 weeks.
After randomization, animals were routinely monitored for morbidity and mortality, they were weighted twice a week, and tumor volumes (TV) were determined twice a week with a caliper. Relative body weight (RBW) was calculated by dividing the absolute weight or volume on a certain day by the absolute weight at day 0 multiplied by 100. Relative tumor volumes (RTV) were calculated by dividing the absolute individual tumor volume on a certain day by the absolute tumor volume at day 0 multiplied by 100.
For mice that lost >10% body weight, weight was measured daily, and animals had facilitated access to feed and water, and access to DietGel.
A dose-free observation period was included to compare duration of response and relapse (tumor re-growth) after treatment end. […]
The test system of another series is cMET and EGFR. Particulars: Moores et al. (2016); cited from earlier work.
The target of a further series is mouse EGFR (Mus musculus, UniProt Q01279). Put plainly: Binding to mouse EGFR. Conditions: in words.

Chain of cMET (P08581 25-1390): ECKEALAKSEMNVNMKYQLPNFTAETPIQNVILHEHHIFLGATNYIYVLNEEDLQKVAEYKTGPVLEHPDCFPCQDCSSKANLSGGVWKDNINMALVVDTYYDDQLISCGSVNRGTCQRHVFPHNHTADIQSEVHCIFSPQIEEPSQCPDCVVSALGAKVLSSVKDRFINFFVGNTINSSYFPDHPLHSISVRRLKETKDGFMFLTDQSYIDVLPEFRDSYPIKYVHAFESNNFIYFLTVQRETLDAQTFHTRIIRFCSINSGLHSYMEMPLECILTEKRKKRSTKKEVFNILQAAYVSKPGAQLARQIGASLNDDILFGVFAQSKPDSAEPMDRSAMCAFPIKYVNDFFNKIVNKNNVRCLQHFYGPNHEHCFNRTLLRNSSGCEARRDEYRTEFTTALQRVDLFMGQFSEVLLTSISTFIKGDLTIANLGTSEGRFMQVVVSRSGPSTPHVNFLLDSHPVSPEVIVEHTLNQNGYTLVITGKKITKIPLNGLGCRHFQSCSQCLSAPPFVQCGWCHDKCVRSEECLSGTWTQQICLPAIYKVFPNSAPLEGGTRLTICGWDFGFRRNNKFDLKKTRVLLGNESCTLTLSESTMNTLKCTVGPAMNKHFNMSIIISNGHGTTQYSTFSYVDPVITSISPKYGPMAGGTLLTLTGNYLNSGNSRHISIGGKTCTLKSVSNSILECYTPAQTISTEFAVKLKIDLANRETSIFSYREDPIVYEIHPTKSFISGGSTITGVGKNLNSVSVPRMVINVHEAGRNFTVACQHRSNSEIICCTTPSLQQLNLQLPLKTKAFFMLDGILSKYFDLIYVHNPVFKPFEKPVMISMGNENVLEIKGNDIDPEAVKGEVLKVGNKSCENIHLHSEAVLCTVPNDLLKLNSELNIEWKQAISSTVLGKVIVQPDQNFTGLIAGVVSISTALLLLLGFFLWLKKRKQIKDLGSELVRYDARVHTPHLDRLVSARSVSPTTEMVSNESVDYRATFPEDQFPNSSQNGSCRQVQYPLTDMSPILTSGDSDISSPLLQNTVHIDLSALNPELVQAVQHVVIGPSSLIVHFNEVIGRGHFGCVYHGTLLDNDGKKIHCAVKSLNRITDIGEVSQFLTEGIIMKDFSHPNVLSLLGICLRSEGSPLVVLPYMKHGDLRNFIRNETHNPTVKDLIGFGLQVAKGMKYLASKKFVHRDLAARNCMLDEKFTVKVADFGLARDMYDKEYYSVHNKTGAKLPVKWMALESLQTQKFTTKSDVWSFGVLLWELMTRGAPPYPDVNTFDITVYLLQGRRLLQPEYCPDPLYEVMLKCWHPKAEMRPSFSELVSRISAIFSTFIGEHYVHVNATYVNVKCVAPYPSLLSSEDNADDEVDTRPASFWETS
Text for HCC827-ER1 tumor cells: The model HCC827-ER1 was generated in BALB/c nude mice. It carries an EGFR mutation in exon 19 (deletion E746-A750), and has amplified c-MET copy number and Axl expression compared to the wild type HCC827 cell line.
Each mouse was inoculated in the right front flank region with HCC827-ER1 tumor cells mixed with Matrigel for tumor development. […] The date of randomization was denoted as day 0 and dosing was initiated from day 0. […] The dose-free observation period was included to compare duration of response and relapse (tumor re-growth) after treatment end. Mice with tumor volume exceeding 1500 mm^3, or with body weight loss over 20% relative to the weight at the first day of treatment were terminated during the treatment period. Antibody was administered twice a week intra peritoneally (i.p.) at 25 mg/kg dose over a period of 21 days, with a total of 7 doses. […] Eight mice in group 1 were treated with vehicle control (placebo buffer). Tumor volume (mm^3) was measured twice per week in 2 dimensions using a caliper. The animals were checked for any effects of tumor growth and treatments on behavior such as mobility, food and water consumption, body weight gain/loss, eye/hair matting and any other abnormalities. Body weights were measured twice per week after randomization.

“5D5: reference anti-cMET antibody, Sema Domain, HGF block”: the MOA result in the series with cMET is “HGF block”.
For the molecule `C=CC(=O)Nc1cc(Nc2nccc(-c3cn(C)c4ccccc34)n2)c(OC)cc1N(C)CCN(C)C` [Osimertinib], the adverse events entry with HCC827-ER1 tumor cells (25 mg/kg) is on record as “tumor scabbing or tumor ulceration in some mice”. Also, in the series with HCC827-ER1 tumor cells (mouse, in vivo), the “effect on tumor volume” value was “tumor regression”. Besides, the “anti-tumor efficacy, monotherapy” value in series [1] (5 and 25 mg/kg) is given as “dose-dependent anti-tumor efficacy”. In series [1] (Osimertinib 25 mg/kg PO QD), this molecule gave a body weight loss of over 10%. The “sensitivity of the model to treatment” value in series [1] (at 5 mg/kg) is “reduced sensitivity”. Besides, the “xenograft progression to 750 mm3, mice” value in series [1] (mouse, in vivo) is on record as 6/9.
With “JNJ-61186372: bispecific cMET×EGFR antibody produced by controlled Fab-arm exchange (Moores et al 2016)”, in the series on cMET and EGFR, the “affinity imbalance, greater affinity for cMET than EGFR” value is “approximately 40 ×”.
Regarding “zalutumumab: EGFR monoclonal antibody in clinical development”, the “binding to mouse EGFR” value in the series with mouse EGFR was “do not”.

(Values after patent US20250188171A1, “COMBINATION THERAPY INCLUDING ANTIBODIES THAT BIND EGFR AND CMET” (MERUS N.V., priority 2022, published 2025).)
